Experimental data as given in US20220349876A1, “USE OF DKK1 INHIBITOR IN PREVENTION AND/OR TREATMENT OF TUMOR CACHEXIA AND DISEASES ASSOCIATED WITH DIABETES” (SHANGHAI DONGTSU BIOSCIENCES CO., LTD., priority 2019, published 2022).
Entries after “also recorded” stand apart in the source; their conditions may differ.

Columns and labels:
β-arrestin1/2 = β-arrestin1/2 translocation in HUVEC cells (Western blot); format: cell-based; details: BIM-46187 pretreatment 1 μM for 30 min
Method: (5) Add 100 μl (cell) or 200 μl (tissue) A solution to each sample, and resuspend the cell pellet with a pipette to completely disperse the pellet. The tissue pellet should be fully homogenized on ice with a homogenizer, and the ice bath should be used for 15 min.
(10) Add 50 μl (cells) or 100 μl (tissue) B solution to each sample, resuspend the pellet in Vortex at the highest speed for 10 s, ice bath for 10 min, and repeat twice to fully extract membrane proteins.
(§1) Protein electrophoresis gels are double-layered gels, including an upper stacking gel and a lower separating gel. The concentration of the stacking gel is 5%, and the concentration of the separating gel is determined according to the molecular weight of the target protein. In this study, large molecular weight proteins (LRP5/6, β-catenin, β-arrestin1/2) used 8%-5% double-layer gel, and small molecular weight proteins (γH2AX, p53, p21, Bcl-2, Bax, Cleaved Caspase-3) used 12%-5% double-layer gel. In addition, the number of wells (10 wells or 15 wells) and thickness (1 mm or 1.5 mm) of the preparation gel were selected according to the number and volume of protein samples loaded. The gel formulation is shown in the experimental material section, and the preparation steps are as follows: […]

HUVEC cells = assay: γH2AX DNA damage response in HUVEC cells (Western blot); format: cell-based
Method: (2) The transfection system of a 3.5 cm petri dish was prepared as follows: 1 μl of siRNA Oligo/Red (concentration of the original solution was 20 μM) was added to an EP tube containing 250 μl of pure Opti-MEM and mixed, and 1.5 μl of RNAiMAX (transfection Reagent) was added to the flow tube containing 250 μl of pure Opti-MEM and mixed, and then all the liquid in the EP tube was added to the flow tube and mixed, and allowed to stand at room temperature for 15 min.
(3) The prepared transfection system was added to a 3.5 cm culture dish, and the cells were cultured for 24-48 h, then the samples were collected and the total cell protein was extracted, and the knockdown effect of the gene was identified by Western Blotting.
(3) Add 150 μl of total protein lysate to each cell sample to make the lysate fully contact with the cells, scrape off the cell lysate with a scraper, collect it into a pre-cooled EP tube, and take an ice bath for 15 min.
as §1

wild-type mice heart = assay: Local injection of Dkk1 protein into the heart combined with MDC or BIM-46187; format: in vivo, mouse
Method: In the experiment of local injection of Dkk1 purified protein into the heart combined with MDC intervention, 10-week-old wild-type male mice were selected, the left chest was depilated, and intraperitoneal injection of MDC (diluted in sterile PBS, 10 mg/kg) or the corresponding volume of DMSO (diluted in sterile PBS) and injected at the same time every day thereafter. After 1 h of MDC intervention, cardiac Dkk1 protein injection was performed. The mice were given continuous inhalation anesthesia with 1% isoflurane and oxygenated with a ventilator, and then the fourth intercostal space near the sternum was opened to expose the heart. Using a 200 μl microsyringe, Dkk1 (10 μg of Dkk1 per heart, dissolved in 30 μl PBS) or an equal volume of PBS was injected locally at three sites in the heart. Of these, two sites are on the border around the left ventricle, and one site enters the myocardium of the left ventricle. After the injection, the wound was sutured, the anesthesia was removed, and the mice were awake. After MDC was continuously intervened for 2 days, the mice were anesthetized and the materials were collected.
In addition to injecting Dkk1 protein alone into the heart, we also need to perform experiments of local injection of Dkk1 combined with BIM-46187 into mouse hearts. According to the experimental grouping, it was divided into cardiac injections of four different solutions, including PBS, Dkk1, BIM-46187, and a mixture of Dkk1 and BIM-46187. The dosage of Dkk1 per heart is 10 μg, and the dosage of BIM-46187 is 2.4 ng, diluted with 30 μl PBS and then injected into the heart. The specific operation steps are the same as above. After the injection, the wound was sutured, the anesthesia was removed, and the mice were awake. Two days after the injection, the mice were anesthetized and the materials were collected.

[1] = tested on: STZ-induced diabetic mice; assay: STZ-induced type 1 diabetes mouse model with insulin or MDC rescue; format: in vivo
Method: STZ-induced diabetes is a chemical modeling method for diabetes. Its full name is streptozotocin, which is a broad-spectrum antibiotic isolated from achromatic streptomycin. It can selectively damage islet 13 cells in a short period of time, causing 13 cell necrosis, resulting in varying degrees of blood insulin drop and blood sugar rise, resulting in insulin-dependent type 1 diabetes mellitus. […] Modelling criteria are non-fasting blood glucose values above 13.8 mM (250 mg/dl). The modeling steps are as follows: (4) According to the body weight, mice in the model group were injected intraperitoneally with 2% STZ-citric acid solution (160 mg/kg), and the mice in the control group were intraperitoneally injected with the corresponding volume of citrate buffer. 2 h after the injection, the mice were fed back. […] Specific steps are as follows: (3) According to the body weight, the insulin rescue group was subcutaneously injected with diluted insulin (1 U/kg/day), once a day at the same time for 7 consecutive days, and the control group was given a corresponding volume of normal saline. […] Body weight and random blood glucose were measured at different time points after injection. […] (1) Sample preparation: Store the freshly obtained mouse blood in an EDTA anticoagulation tube, stand at room temperature for 10 min, centrifuge at 1000 g for 15 min, and collect the supernatant, namely plasma. If it cannot be detected immediately, it should be subpackaged and stored at −80° C. to avoid repeated freezing. If precipitation occurs during storage, it should be fully thawed at room temperature before use, and centrifuged again.

LRP6 and Kremen2 = assay: Intramuscular injection of Dkk1, Western blot of membrane LRP6 and Kremen2; format: in vivo, mouse; details: simultaneous injection with Dkk1
Method: Wild-type mice and β-arrestin2+/−KO mice were injected into the left quadriceps (0.25 mg/kg) and an equal volume of PBS was injected into the right leg as controls. MDC (10 mg/kg), IGFBP-4/H95P (1.7 mg/kg) or PBS were injected in combination with Dkk1 as a control to observe the effects of drugs on Dkk1-induced signal transduction. After 48 hours, the mice were sacrificed, and the left and right quadriceps were taken to measure the […].
Membrane proteins were extracted according to the instructions of Membrane Protein Extraction Kit (Sangon Biotech, China). Western blot analysis omitted. Antibodies for WB analysis were purchased from Cell Signaling Technology and Proteintech.

CT26 tumor-bearing mice = assay: Tumor cachexia in CT26 tumor-bearing mice: tumor-free body weight, muscle weight, muscle membrane proteins; format: in vivo, mouse

For `N[C@@H](CSSC[C@H](N)C(=O)N1CCn2cc(-c3ccccc3)nc2[C@@H]1CC1CCCCC1)C(=O)N1CCn2cc(-c3ccccc3)nc2[C@@H]1CC1CCCCC1` [BIM-46187], the “Dkk1-induced translocation of β-arrestin1/2” value (β-arrestin1/2) was “able to prevent Dkk1-induced translocation of β-arrestin1/2”, the “Dkk1-induced γH2AX activation” value (HUVEC cells; BIM-46187 pretreatment 1 μM, 30 min) was “inhibited” and the “Dkk1-induced cardiac β-arrestin1/2 translocation” value (wild-type mice heart; Dkk1 intracardiac injection with MDC or BIM-46187) was “inhibited; also recorded: significantly prevent Dkk1 direct endocytosis of LRP5/6-induced cardiac β-arrestin1/2 translocation changes”. For the same molecule, the “Dkk1-induced cardiac changes (LRP5/6, γH2AX, p53, p21)” value (wild-type mice heart; Dkk1 intracardiac injection with MDC pretreatment or combined with BIM-46187) was “effectively inhibit Dkk1-induced cardiac injury; also recorded: significantly prevent”.

With insulin the “blood 8-OHdG (ELISA)” value ([1]; STZ diabetic mice) was “greatly attenuated”, the blood glucose concentration ([1]; STZ diabetic mice) was “reduces STZ-induced blood glucose elevation; also recorded: decreased from the first day of treatment and remained at a low level” and the “body weight loss of diabetic mice” value ([1]; STZ diabetic mice) was “promoted the gradual recovery of the weight loss; also recorded: suppressed”. The “blood Dkk1 (ELISA)” value ([1]; STZ diabetic mice, daily insulin) was “brought high blood Dkk1 concentrations back to basal levels; also recorded: at the basal level”, the “cardiac p53, p21, Bax/Bcl-2 and Cleaved Caspase-3” value ([1]; STZ diabetic mice, heart) was “greatly attenuated” and the “cardiac γH2AX” value ([1]; STZ diabetic mice, heart) was “decrease in γH2AX signaling”. The “damage to myocardial structure (HE staining)” value ([1]; STZ diabetic mice, heart) was “prevented”, the “translocation of cardiac β-arrestin1/2 in diabetic hearts” value ([1]; STZ diabetic mice, heart) was “able to reverse this translocation” and the “LRP5/6 on the cardiac membrane” value ([1]; STZ diabetic mice, heart, Western blot) was “started to be up-regulated”. The “translocation of insulin receptors on the cardiac membrane or in the plasma” value ([1]; substance alone (FIG. 19G)) was “does not induce translocation of insulin receptors”.

B1: IGFBP4/H95P: recombinant mutant IGFBP4/H95P protein, which lost its IGF-binding ability, can bind to LRP6 on the membrane and prevent Dkk1 signaling (protein, UniProt P22692 22-258, looked up, variant H95P)
Insulin-like growth …: DEAIHCPPCSEEKLARCRPPVGCEELVREPGCGCCATCALGLGMPCGVYTPRCGSGLRCYPPRGVEKPLHTLMPGQGVCMELAEIEAIQESLQPSDKDEGDHPNNSFSPCSAHDRRCLQKHFAKIRDRSTSGGKMKVNGAPREDARPVPQGSCQSELHRALERLAASQSRTHEDLYIIPIPNCDRNGNFHPKQCHPALDGQRGKCWCVDRKTGVKLPGGLEPKGELDCHQLADSFRE
For B1, the “Dkk1-induced endocytosis / downregulation of membrane LRP6 and Kremen2” value (LRP6 and Kremen2) was “inhibit downregulation of membrane LRP6 expression induced by Dkk1”, the “loss of body weight and muscle weight” value (CT26 tumor-bearing mice; listed as IGFBP4) was “reverse tumor-induced loss of tumor-free body weight and muscle atrophy” and the “loss of body weight and muscle weight” value (CT26 tumor-bearing mice; listed as IGFBP-4/H95P) was “completely prevents the decrease in body weight and muscle weight”.

B2: LRP6N: soluble protein of the extracellular segment of LRP6 (LRP6 ectodomain) (protein, UniProt O75581 20-1370, looked up)
extracellular domain: APLLLYANRRDLRLVDATNGKENATIVVGGLEDAAAVDFVFSHGLIYWSDVSEEAIKRTEFNKTESVQNVVVSGLLSPDGLACDWLGEKLYWTDSETNRIEVSNLDGSLRKVLFWQELDQPRAIALDPSSGFMYWTDWGEVPKIERAGMDGSSRFIIINSEIYWPNGLTLDYEEQKLYWADAKLNFIHKSNLDGTNRQAVVKGSLPHPFALTLFEDILYWTDWSTHSILACNKYTGEGLREIHSDIFSPMDIHAFSQQRQPNATNPCGIDNGGCSHLCLMSPVKPFYQCACPTGVKLLENGKTCKDGATELLLLARRTDLRRISLDTPDFTDIVLQLEDIRHAIAIDYDPVEGYIYWTDDEVRAIRRSFIDGSGSQFVVTAQIAHPDGIAVDWVARNLYWTDTGTDRIEVTRLNGTMRKILISEDLEEPRAIVLDPMVGYMYWTDWGEIPKIERAALDGSDRVVLVNTSLGWPNGLALDYDEGKIYWGDAKTDKIEVMNTDGTGRRVLVEDKIPHIFGFTLLGDYVYWTDWQRRSIERVHKRSAEREVIIDQLPDLMGLKATNVHRVIGSNPCAEENGGCSHLCLYRPQGLRCACPIGFELISDMKTCIVPEAFLLFSRRADIRRISLETNNNNVAIPLTGVKEASALDFDVTDNRIYWTDISLKTISRAFMNGSALEHVVEFGLDYPEGMAVDWLGKNLYWADTGTNRIEVSKLDGQHRQVLVWKDLDSPRALALDPAEGFMYWTEWGGKPKIDRAAMDGSERTTLVPNVGRANGLTIDYAKRRLYWTDLDTNLIESSNMLGLNREVIADDLPHPFGLTQYQDYIYWTDWSRRSIERANKTSGQNRTIIQGHLDYVMDILVFHSSRQSGWNECASSNGHCSHLCLAVPVGGFVCGCPAHYSLNADNRTCSAPTTFLLFSQKSAINRMVIDEQQSPDIILPIHSLRNVRAIDYDPLDKQLYWIDSRQNMIRKAQEDGSQGFTVVVSSVPSQNLEIQPYDLSIDIYSRYIYWTCEATNVINVTRLDGRSVGVVLKGEQDRPRAVVVNPEKGYMYFTNLQERSPKIERAALDGTEREVLFFSGLSKPIALALDSRLGKLFWADSDLRRIESSDLSGANRIVLEDSNILQPVGLTVFENWLYWIDKQQQMIEKIDMTGREGRTKVQARIAQLSDIHAVKELNLQEYRQHPCAQDNGGCSHICLVKGDGTTRCSCPMHLVLLQDELSCGEPPTCSPQQFTCFTGEIDCIPVAWRCDGFTECEDHSDELNCPVCSESQFQCASGQCIDGALRCNGDANCQDKSDEKNCEVLCLIDQFRCANGQCIGKHKKCDHNVDCSDKSDELDCYPTEEPAPQA
modifications: extracellular domain
In the case of B2, the “γH2AX signaling enhanced by H2O2 in the presence of Dkk1” value (HUVEC cells; Dkk1 then H2O2 50 μM) is reported as “significantly attenuated”, the “H2O2-activated γH2AX signaling in control and β-catenin-knockdown cells” value (HUVEC cells; H2O2 50 μM) is reported as “no effect” and the “γH2AX signaling in MESD knockdown cells enhanced by H2O2” value (HUVEC cells; H2O2 50 μM, LRP6N pretreatment) is reported as “significantly attenuats this change”. For the same molecule, the “γH2AX signaling of LRP5/6 knockdown cells further activated by H2O2” value (HUVEC cells; H2O2 50 μM, LRP6N pretreatment) was “significantly attenuated”, the “H2O2-induced γH2AX activation” value (HUVEC cells; H2O2 50 μM, without Dkk1) was “does not prevent H2O2-induced γH2AX activation” and the “γH2AX upregulation induced by knockdown of LRP5/6” value (HUVEC cells; LRP6N pre-added to culture medium) was “reverses cellular DNA damage induced by knockdown of LRP5/6; also recorded: significantly attenuated”. The “γH2AX response by the substance itself” value (HUVEC cells; no Dkk1, no H2O2) was “does not elicit γH2AX responses” and the “Dkk1-induced γH2AX activation” value (HUVEC cells; pretreatment with MDC or LRP6N protein) was “inhibits Dkk1-induced γH2AX activation”.
